System: C57BL/6 mice
Assay: Hair growing effect on mice (topical application to shaved dorsal region)
Format: in vivo
Details: 1% topically every day, male C57BL/6 mice
Description: In the present example, the hair growing effect of keratin microparticles on mice was investigated. The experiment was approved by Institutional Animal Care and Use Committee, University of Tsukuba (No. 17-060), and the procedure was carried out in conformity with the “Guiding principles for the care and use of animals in the field of physiological sciences” approved by the board of Physiological Society of Japan.
Six-week-old male C57BL/6 mice (Charles River Japan Inc.) were kept individually in a cage. acclimated for 1 week, and then randomly assigned to experiment groups (each group n=5) of a 1% Minoxidil treated group, a 1% keratin treated group, a 1% keratin microparticles treated group, and a milli-Q water treated group (control group). The mice were anesthetized with Isoflurane (Wako Pure Chemical Industries, Ltd.) and then telogen hair at the dorsal region of the mice was shaved using a hair clipper to induce the growth phase. […]
In the end of treatment period, the mice were slaughtered by cervical dislocation. […] Using ImageJ processing program (National Institutes of Health, Bethesda, USA), the hair regrowth at the treated area was measured.

Nc1cc(N2CCCCC2)nc(N)[n+]1[O-] [Minoxidil]
time of hair regrowth phenotype: ~10 day after application

From US20250345394A1, “HAIR-GROWING OR HAIR-FOSTERING AGENT BASED ON KERATIN FINE PARTICLES” (MYQTECH INC., priority 2022, published 2025)
